The values below come from ChEMBL document CHEMBL4819153, “l-Hypaphorine and d-hypaphorine: Specific antiacetylcholinesterase activity in rat brain tissue” (Bioorg Med Chem Lett, 2021).

Series [1] concerns HaCaT. In words: Cytotoxicity against human HaCaT cells assessed as reduction in cell viability upto 10000 uM incubated for 48 hrs relative to control. The series is classed as cell-based.
Series [2] concerns the target T1, Acetylcholinesterase (Rattus norvegicus, UniProt P37136).
T1 sequence (P37136 whole entry): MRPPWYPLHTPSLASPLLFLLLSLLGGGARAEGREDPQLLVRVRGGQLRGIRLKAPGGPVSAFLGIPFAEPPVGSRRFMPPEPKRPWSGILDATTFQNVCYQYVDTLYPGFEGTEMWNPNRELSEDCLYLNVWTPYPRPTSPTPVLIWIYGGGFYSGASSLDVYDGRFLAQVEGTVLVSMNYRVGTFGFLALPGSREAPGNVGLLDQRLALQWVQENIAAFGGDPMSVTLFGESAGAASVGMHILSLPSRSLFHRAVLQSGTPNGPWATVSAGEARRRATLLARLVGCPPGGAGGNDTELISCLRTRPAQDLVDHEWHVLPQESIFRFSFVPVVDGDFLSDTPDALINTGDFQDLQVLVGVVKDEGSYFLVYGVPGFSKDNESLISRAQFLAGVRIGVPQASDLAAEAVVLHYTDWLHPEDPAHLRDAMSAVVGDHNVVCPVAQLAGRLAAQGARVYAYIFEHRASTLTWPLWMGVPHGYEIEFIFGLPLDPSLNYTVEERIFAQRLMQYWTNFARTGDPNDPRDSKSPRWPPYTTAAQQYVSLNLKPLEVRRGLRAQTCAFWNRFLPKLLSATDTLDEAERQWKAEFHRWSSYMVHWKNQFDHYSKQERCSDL
In words: Inhibition of AChE in rat brain Striatum. The series is classed as tissue-based.

The test system of series [3] is HaCaT. Put plainly: Cytotoxicity against human HaCaT cells assessed as reduction in cell viability upto 10000 uM incubated for 24 hrs relative to control. The series is classed as cell-based.
In series [4] the target is T1, Acetylcholinesterase. In words: Inhibition of AChE in rat brain Hippocampus. The format is tissue-based.
The nature of series [5]: Solubility in water. The series is classed as physicochemical. The note with it: buffer.
Series [6] has as its target T1, Acetylcholinesterase. In words: Inhibition of AChE in rat brain Cerebellum. The format is tissue-based.
The target of series [7] is T1, Acetylcholinesterase. Put plainly: Inhibition of AChE in rat brain cortex. The format is tissue-based.
For series [8], the system named is HaCaT. Put plainly: Cytotoxicity against human HaCaT cells assessed as reduction in cell viability incubated for 48 hrs relative to control. The format is cell-based.
The test system of series [9] is HaCaT. Put plainly: Cytotoxicity against human HaCaT cells assessed as reduction in cell viability incubated for 24 hrs relative to control. The series is classed as cell-based.
The test system of series [10] is HaCaT. In words: Cytotoxicity against human HaCaT cells assessed as reduction in cell viability at 5000 to 10000 uM incubated for 48 hrs relative to control. The following applies: dose 5000-10000 µM. The series is classed as cell-based.
The subject of series [11] is HaCaT. In words: Cytotoxicity against human HaCaT cells assessed as reduction in cell viability at 10000 uM incubated for 24 hrs relative to control. The series is classed as cell-based.

What is called IC50 is the point on the concentration scale where inhibition reaches its midpoint. Low readings indicate greater potency, high ones weaker potency. Regarding `C[N+](C)(C)[C@@H](Cc1c[nH]c2ccccc12)C(=O)O.[Cl-]`, the Activity result in [1] and in series [3] was “Non-Toxic” in each case. For the same molecule, the IC50 in [2] is above 1000 µM; in series [4] it was above 1000 µM; in series [6] it was 18.6 µM; in series [7], above 1000 µM. Besides, the solubility entry in series [5] is “Soluble”.
On to `C[N+](C)(C)[C@H](Cc1c[nH]c2ccccc12)C(=O)O.[Cl-]`, for which the Activity result in series [1] and in [3] was “Non-Toxic” each time. The IC50 in series [2] turned out to be 34.6 µM; in [4] it was 0.32 µM; in series [6], 19.1 µM; in series [7], 0.24 µM. Besides, the solubility result in series [5] is “Soluble”.
Regarding `CN(C)/N=N/c1[nH]cnc1C(N)=O` [DACARBAZINE], the Activity came to 44.46% in series [8] and 29.74% in series [9].
Consider `CN(C)C(=O)Oc1cccc([N+](C)(C)C)c1.[Br-]` [NEOSTIGMINE BROMIDE], for which the IC50 was determined as 3.17 µM in [2], 0.07 µM in [4], 37.2 µM in [6] and 0.65 µM in series [7]. Also, the Activity entry in series [10] and in series [11] was “Toxic” each time.
